Consider 14 compounds from patent US10485814B2, “Nicotinamide riboside analogs and pharmaceutical compositions and uses thereof” (GlaxoSmithKline Intellectual Property (No. 2) Limited, priority 2014, dated 2019).

Where a name gives a salt, the structure may show the parent alone.

Tested on in the first data set: not listed separately
Briefly: Gravimetric Vapor Sorption (GVS). The data set is classed as physicochemical. The conditions noted are these: 90% RH, 25° C. The method, then:
Gravimetric Vapor Sorption (GVS): Samples were analyzed using a VTI corporation (now part of TA Instruments) SGA-100 with Cahn microbalance equipped with quartz sample and reference pans. Samples were dried in the SGA-100 under dry nitrogen for 5 hours at 25° C. followed by a moisture absorption step ramp from 5% relative humidity (RH) to 95% or 90% RH followed by a desorption step ramp back to 5% or 10% RH (all steps at 25° C.). The samples were held at each % RH step for 4 hours.
Consider `CCCCCC(=O)OC[C@H]1O[C@@H](N2C=CCC(C(N)=O)=C2)[C@H](O)[C@@H]1O` [mono C6-NRH derivative, nicotinamide riboside hydride 5′-monohexanoate], for which the “GVS weight gain from the dried state” value is listed as “approximately 5%”.

Tested on in a further data set: not listed separately
Briefly: Plasma hydrolysis of nicotinamide riboside analogs to NR (incubation with rat plasma, LC/MS/MS). As to conditions: 10 mM, incubated 30 min at 37° C. The data set is classed as in vitro ADME. The method, then:
Compounds were diluted with rat plasma to a concentration of 10 millimolar (mM). Samples were incubated for 30 min at 37° C., taking 50 microL aliquots for analysis at 0 and 30 min. The aliquots were loaded onto a deep 96 well plate, then 350 microL of 0.1% (v:v) formic acid in acetonitrile was added to each well. The plate was covered and sealed to prevent evaporation, then it was placed on an orbital plate shaker set to 800-900 rps for 5-10 minutes. Next, the plate was centrifuged at around 3000 rpm for 5 min to provide a clear supernatant. For LC/MS/MS analysis, 200 microL of supernatant from each well was transferred onto a clean plate, which was subsequently capped and placed into an autosampler.
LCMS Conditions. For each well, a 10 microL sample was injected via autosampler onto a Chromolithe Performance, RP-18e (100×4.6 mm) column, and eluted with a binary gradient. Solvent A=0.1% formic acid, 0.1% N,N-dibutyl-N-methylamine (DBME) in 2 mM aqueous ammonium acetate (1:1:1000 v:v:v). Solvent B=0.1% formic acid in acetonitrile (1:1000 v:v). The solvent gradient was as follows: 0-0.22 min, 95:5 A:B; […], 95:5 A:B to 30:70 A:B (linear gradient); 5.05-6.05 min, 30:70 A:B; 6.05-6.60 min, 30:70 A:B to 95:5 A:B (linear gradient); 6.60-7.15 min, 95:5 A:B; stop elution at 7.15 min. Nicotinamide riboside eluted at approximately 1.7 min. A triple-quadrupole mass spectrometer was employed for peak identification. The identity of the analyte was confirmed by MS observation of a Q1 peak at m/z=255 (M)^+, and a Q3 peak at m/z=123.1 (M-C5H8O4)^+.
The results are shown in FIG. 3, with the release of free nicotinamide riboside measured using by HPLC-MS at 0, 30, and 60 minute time points (columns 5, 6, and 7 of table shown in FIG. 3). For each of NR esters in Table 3, except nicotinamide riboside tribenzoate, nicotinamide riboside was detected at the 30 minute time point.
In the case of `CCCCCCCCCC(=O)OC[C@H]1O[C@@H](N2C=CCC(C(N)=O)=C2)[C@H](O)[C@@H]1O` [NRH monodecanoate, nicotinamide riboside hydride 5′-monodecanoate], the “conversion to free nicotinamide riboside” value was “converted to free nicotinamide riboside to a significant degree”.
On to `CCOC(=O)OC[C@H]1O[C@@H](N2C=CCC(C(N)=O)=C2)[C@H](OC(=O)OCC)[C@@H]1OC(=O)OCC` [NRH triethylcarbonate, ((2R,3R,4R,5R)-5-(3-carbamoylpyridin-1(4H)-yl)-3,4-bis((ethoxycarbonyl)oxy)-tetrahydrofuran-2-yl)methyl ethylcarbonate], for which the “conversion to free nicotinamide riboside” value is “converted to free nicotinamide riboside to a significant degree”.
Turning to `CCCCCC(=O)OCC1O[C@@H]([n+]2cccc(C(N)=O)c2)[C@H](OC(=O)CCCCC)[C@@H]1OC(=O)CCCCC` (stereo partly shown) [NR+ trihexanoate TFA-], the “conversion to free nicotinamide riboside” value is reported as “converted to free nicotinamide riboside to a significant degree”.
On to `CCCCCCCC/C=C\CCCCCCCC(=O)OC[C@H]1O[C@@H]([n+]2cccc(C(N)=O)c2)[C@H](O)[C@@H]1O` [NR+ monooleate, 3-carbamoyl-1-((2R,3R,4S,5R)-3,4-dihydroxy-5-((oleoyloxy)methyl)tetrahydrofuran-2-yl)pyridin-1-ium 2,2,2-trifluoroacetate], for which the “conversion to free nicotinamide riboside” value was “converted to free nicotinamide riboside to a significant degree”.
Turning to `CCCCCCCCCCCCCC(=O)OC[C@H]1O[C@@H](N2C=CCC(C(N)=O)=C2)[C@H](O)[C@@H]1O` [NRH monotetradecanoate, ((2R,3S,4R,5R)-5-(3-carbamoylpyridin-1 (4H)-yl)-3,4-dihydroxytetrahydrofuran-2-yl)methyl tetradecanoate], the “conversion to free nicotinamide riboside” value is “converted to free nicotinamide riboside to a significant degree”.
On the same count and under the same terms, the entry for `CCCCCCCCCCCC(=O)OC[C@H]1O[C@@H]([n+]2cccc(C(N)=O)c2)[C@H](O)[C@@H]1O.O=C([O-])C(F)(F)F` [NR+ monododecanoate, nicotinamide riboside 5′-monododecanoate] is “converted to free nicotinamide riboside to a significant degree”.
The same measure, in the same setting: the same measure for `NC(=O)c1ccc[n+]([C@@H]2O[C@H](COP(=O)([O-])O)[C@@H](O)[C@H]2O)c1` [Nic mononucleotide, nicotinamide mononucleotide, reference compound]: “some amount of conversion to free nicotinamide riboside”.
For `CCCCCCCCCCC(=O)OC[C@H]1O[C@@H]([n+]2cccc(C(N)=O)c2)[C@H](O)[C@@H]1O` [NR+ monoundecanoate, nicotinamide riboside 5′-monoundecanoate], the “conversion to free nicotinamide riboside” value is on record as “converted to free nicotinamide riboside to a significant degree”.
As for `CCCCC(=O)OC[C@H]1O[C@@H]([n+]2cccc(C(N)=O)c2)[C@H](OC(=O)CCCC)[C@@H]1OC(=O)CCCC` [1-((2R,3R,4R,5R)-3,4-bis(pentanoyloxy)-5-((pentanoyloxy)methyl)tetrahydrofuran-2-yl)-3-carbamoylpyridin-1-ium chloride], the “conversion to free nicotinamide riboside” value is recorded as “converted to free nicotinamide riboside to a significant degree”.
Still for that read-out and setting: the entry for `CCCCCCCCC(=O)OC[C@H]1O[C@@H]([n+]2cccc(C(N)=O)c2)[C@H](O)[C@@H]1O` [NR+ monononanoate, 3-carbamoyl-1-((2R,3R,4S,5R)-3,4-dihydroxy-5-((nonanoyloxy)methyl)tetrahydrofuran-2-yl)pyridin-1-ium 2,2,2-trifluoroacetate] is “converted to free nicotinamide riboside to a significant degree”; for `CCCCCC(=O)OC[C@H]1O[C@@H]([n+]2cccc(C(N)=O)c2)[C@H](O)[C@@H]1O` [NR+ monohexanoate, 3-carbamoyl-1-((2R,3R,4S,5R)-5-((hexanoyloxy)methyl)-3,4-dihydroxytetrahydrofuran-2-yl)pyridin-1-ium 2,2,2-trifluoroacetate] it is “converted to free nicotinamide riboside to a significant degree”; for `CCCCC(=O)OC[C@H]1O[C@@H]([n+]2cccc(C(N)=O)c2)[C@H](O)[C@@H]1O` [NR+ monopentanoate, 3-carbamoyl-1-((2R,3R,4S,5R)-3,4-dihydroxy-5-((pentanoyloxy)methyl)tetrahydrofuran-2-yl)pyridin-1-ium 2,2,2-trifluoroacetate] it is “converted to free nicotinamide riboside to a significant degree”.

A further data set deals with HaCaT cells (a human keratinocyte cell line). In words: Intracellular NAD measurement in HaCaT cells (ADPR cyclase enzymatic assay, absorbance 405 nm). The data set is classed as cell-based. As to conditions: HaCaT in DMEM medium with Vit B3, highest tested doses, 3 hrs. The method, then: HaCaT cells (AddexBio Technologies, San Diego, Calif., Passage 16-19) were grown in Medium DMEM/GlutMax (Life technologies, Grand Island, N.Y.) supplemented with 10% FBS (Life technologies) and Non-essential amino acids (NEAA, Life technologies) and then seeded in 12-well plates (Corning, Tewksbury, Mass.) with a density at 2×10^5 cells per well and 2 ml of culture medium in each well for overnight.
Stock solution of dihydronicotinamide riboside (NRH, GSK3008320A, GSK, RTP, NC) was prepared in ethanol at 100 mM (25.6 mg/ml) and stored at −20° C. Cells were treated with different concentrations of NRH for 3 hrs, washed twice with PBS containing 5 mM EDTA, and then subject to Nicotinamide adenine dinucleotide (NAD) measurement. In brief, acetonitrile (ACN) lysis buffer (Ammonium Acetate (50 mM) and 90% acetonitrile) was added to each well (200 μl/well) to lyse the cells at RT for 5-10 mins by gently rotating on a culture plate shaker at a low speed. Enzyme master mix (300 μM of 5-Amino-(3,4′-bipyridin)-6(1H)-one (Inamrinone) (Sigma-Aldrich), a substrate for ADP ribosyl cyclase (ADPR cyclase)) and 30 nM ADPR Cyclase (Sigma, St. Louis, Mo.), 7.5 μM of N-(2-fluoro-4-(methylsulfonyl)phenyl)-2-methyl-6-(thiazol-5-yl)isonicotinamide (a CD38 inhibitor) in 75 mM HEPES pH7 buffer (Life Technologies)) was added to the lysed cells (400 μl of enzyme master mix/well). Enzymatic reaction was incubated at RT for ˜30 min. At the end of incubation, the supernatant (200 μl) of the reaction solution from each well was transferred to each well of a 96-well plate and absorbance was read twice in the 96-well plate at 405 nm using a plate reader (Spectra Maxplus, Molecular Devices, Sunnyvale, Calif.). A mixture of enzyme master mix and ACN extraction solution at 2:1 ratio was used as a blank reference. NAD (Sigma) was used as a positive control.
HaCaT cells were grown as described in example 23 in the regular cell culture DMEM medium as described earlier or in the Epilife medium without nacinamide (Life Technologies). Cells were treated with different concentrations of NRH or niacinamide (NIA, DSM nutritional products) for 3 hrs, washed twice with PBS containing 5 mM EDTA, and then subject to Nicotinamide adenine dinucleotide (NAD) measurement as described in example 23. A mixture of enzyme master mix and ACN extraction solution at 2:1 ratio for a blank reference. NAD (Sigma) was used as a positive control. […] Both the CD38 inhibitor and Niacinamide increased NAD in the HaCaT cells cultured in the Vit B3 depleted culture medium, and the induction of NAD by niacinamide was dose-dependent (solid bars). However, the induction of NAD by niacinamide (highest at ˜1.5 fold) was low compared to those by NRH. Therefore, NRH is a stronger NAD inducer compared to a CD38 inhibitor or Niacinamide.
HaCaT cells were grown in regular culture media as described in example 1 and seeded in 12-well plates with density at 2×10^5 cells per well and 1 ml of culture medium in each well. NRH stock solution was prepared in ethanol at 100 mM (25.6 mg/ml) and stored at −20° C. Stock solutions of NRH esters were made at 50 mM in DMSO (see FIG. 9B for compound info). Cells were treated with NRH esters and NRH at 150 μM for 6 and 16 hrs, washed twice with PB S containing 5 mM EDTA, and then subject to Nicotinamide adenine dinucleotide (NAD) measurement as described in example 23.
HaCaT cells were grown in regular culture media as described above and seeded in 12-well plates with density at 2×10^5 cells per well and 1 ml of culture medium in each well. NRH stock solution was prepared in ethanol at 100 mM (25.6 mg/ml) and stored at −20° C. NRH (200 μM) was used as a positive control. Because of the possible solubility issue related to NRH monoC16, fatty acid-free bovine serum albumin (defatted BSA, Sigma) was used as a carrier for the compound. NRH monoC16 stock solution (100×) was complexed with defatted BSA ([…]) prior to the treatment, resulting in a NRH monoC16 stock solution (10 ×). […]
Consider `Cc1cc(C(=O)Nc2ccc(S(C)(=O)=O)cc2F)cc(-c2cncs2)n1` [CD38 inhibitor, N-(2-fluoro-4-(methylsulfonyl)phenyl)-2-methyl-6-(thiazol-5-yl)isonicotinamide, reference compound], for which the NAD elevation entry was “did not lead to NAD elevation”.

Still in this data set, the particulars now being: HaCaT in Vit B3 depleted culture medium, 3 hrs.
On to `Cc1cc(C(=O)Nc2ccc(S(C)(=O)=O)cc2F)cc(-c2cncs2)n1` [CD38 inhibitor, N-(2-fluoro-4-(methylsulfonyl)phenyl)-2-methyl-6-(thiazol-5-yl)isonicotinamide, reference compound], for which the NAD level result is reported as “increased NAD”.

The data set is the same for the next values; noted with them: HaCaT, 150 μM.
Regarding `CCCCCCCC/C=C\CCCCCCCC(=O)OC[C@H]1O[C@@H]([n+]2cccc(C(N)=O)c2)[C@H](O)[C@@H]1O` [NR+ monooleate, 3-carbamoyl-1-((2R,3R,4S,5R)-3,4-dihydroxy-5-((oleoyloxy)methyl)tetrahydrofuran-2-yl)pyridin-1-ium 2,2,2-trifluoroacetate], the “appearance of treated cells (potential cytotoxicity)” value is “appeared unhealthy”.
